Test systems include A549; HT-29; KM-20L2; KM12; M14; Malme-3M; NCI-H226; OVCAR-3; OVCAR-8; SF-268; SF-295; SF-539; SK-MEL-28; SK-MEL-5; SNB-19; UACC-62; HCT-15; BT-549; MDA-N; T47D.
Holding throughout (experiment): inhibition of tumour cell growth, NCI panel, 48 h

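Five concentrations, 48 hours, 96-well plates. At the GI50, growth is halved.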 Activity calls are given as the source filed them. Cut-off read from the data, not from the text of the source: active = GI50 up to about 1.1 µM and inactive = higher.

On to `COC(=O)CCC(=O)CC1CC(=O)C2CCCN12` (stereo unspecified), for which the GI50 with A549, with HT-29, in the assay with KM-20L2, with KM12, with M14 and with Malme-3M was > 100 µM (inactive) each time. Besides, the GI50 in the assay on NCI-H226, with OVCAR-3, in the assay on OVCAR-8, in the assay with SF-268, with SF-295 and in the assay with SF-539 was > 100 µM (inactive) each time. Also, the GI50 in the assay with SK-MEL-28, in the assay on SK-MEL-5, with SNB-19 and in the assay on UACC-62 was > 100 µM (inactive) in each case.

In the case of `Cc1nc(C(N)=O)c(N)n1CCN1CCN(C(=O)CCCCCCCCCCNC2NC=Nc3[nH]cnc32)CC1` (stereo unspecified), the GI50 is 51.2 µM (inactive) in the assay on A549; more than 100 µM in the assay on HCT-15; > 100 µM (inactive) in the assay with HT-29; > 100 µM (inactive) in the assay with KM-20L2; 41 µM (inactive) with KM12; 25.7 µM (inactive) in the assay with M14. For the same molecule, the GI50 in the assay with Malme-3M was 31.2 µM (inactive); in the assay with OVCAR-3, 45.9 µM (inactive); in the assay with OVCAR-8, 33.9 µM (inactive); with SF-268, 41.7 µM (inactive); with SF-295, 41.1 µM (inactive); in the assay with SF-539, > 100 µM (inactive). The GI50 in the assay with SK-MEL-28 was 22 µM (inactive); in the assay on SNB-19, > 100 µM (inactive); in the assay with UACC-62 it was 29.8 µM (inactive).

Consider `O=C1NC2C(=O)N(Cc3ccccc3)C(=O)C2N1` (stereo unspecified), for which the GI50 was > 100 µM (inactive) in the assay on A549; more than 100 µM in the assay on HCT-15; > 100 µM (inactive) in the assay with HT-29; > 100 µM (inactive) in the assay on KM-20L2; > 100 µM (inactive) in the assay with KM12; 37.8 µM (inactive) in the assay on M14. The GI50 with Malme-3M, in the assay on NCI-H226, in the assay with OVCAR-3, in the assay with SF-268, in the assay with SF-295 and in the assay on SF-539 was > 100 µM (inactive) in each case. Besides, the GI50 in the assay with SK-MEL-28, with SK-MEL-5, with SNB-19 and in the assay with UACC-62 was > 100 µM (inactive) throughout.

As for `COP(=O)(OC)/C(=N\Nc1ccc([N+](=O)[O-])cc1)NCc1ccccc1`, the GI50 with A549 was 31.3 µM (inactive); in the assay with HCT-15, 32.4 µM; in the assay with HT-29 it was 43.3 µM (inactive); in the assay with KM-20L2, 30.1 µM (inactive); in the assay with KM12, 24.5 µM (inactive); in the assay with M14, 21.4 µM (inactive). Moreover, the GI50 in the assay on Malme-3M was 38.5 µM (inactive); in the assay on OVCAR-3 it was 33.4 µM (inactive); with OVCAR-8, 30.5 µM (inactive); with SF-268 it was 23.7 µM (inactive); with SF-295, 25.8 µM (inactive); with SF-539, 17.7 µM (inactive). Also, the GI50 with SK-MEL-28 is 30.8 µM (inactive); in the assay with SK-MEL-5, 17.5 µM (inactive); in the assay with UACC-62, 28 µM (inactive).

For `NN=C1/C(=C\c2ccccc2)CCC/C1=C/c1ccccc1`, the GI50 in the assay with A549 is 33.3 µM (inactive); in the assay with HCT-15 it was 36.7 µM; in the assay on KM-20L2 it was 39.6 µM (inactive); in the assay on KM12 it was 34.1 µM (inactive); with M14, 41.6 µM (inactive); with Malme-3M, 22.4 µM (inactive). Also, the GI50 was 32.3 µM (inactive) in the assay with OVCAR-3; 50.4 µM (inactive) in the assay on OVCAR-8; 34.3 µM (inactive) in the assay on SF-268; 45.3 µM (inactive) in the assay on SF-295; 24.4 µM (inactive) with SF-539; 39.5 µM (inactive) in the assay on SK-MEL-28. Moreover, the figures for the GI50 in the assay with SNB-19 and in the assay on UACC-62 were 44 µM (inactive) and 40.3 µM (inactive), respectively.

With `COc1ccc(/C=C2\CCCC(C(NO)c3ccc(OC)cc3)C2=NO)cc1` (stereo unspecified), the GI50 was 44.5 µM (inactive) in the assay on A549; 35.6 µM in the assay on HCT-15; 72.1 µM (inactive) with HT-29; 61.9 µM (inactive) in the assay on KM-20L2; 89.5 µM (inactive) with KM12; 39.7 µM (inactive) in the assay with M14. For the same molecule, the GI50 is 34.1 µM (inactive) in the assay with Malme-3M; 47.3 µM (inactive) in the assay on OVCAR-3; 40.5 µM (inactive) in the assay on OVCAR-8; 68.2 µM (inactive) in the assay on SF-268; 55.6 µM (inactive) in the assay on SF-295; 27.5 µM (inactive) in the assay on SF-539. Besides, the GI50 is 26.9 µM (inactive) in the assay on SK-MEL-28, 20 µM (inactive) in the assay with SK-MEL-5, 61.4 µM (inactive) in the assay on SNB-19 and 53 µM (inactive) with UACC-62.

Take `CC(=O)/C=C\C1CC2C=CC1C2` (stereo unspecified): the GI50 in the assay with A549 is 67.1 µM (inactive); with HCT-15, 22.5 µM; in the assay on KM-20L2, 40.2 µM (inactive); in the assay with KM12, 32.3 µM (inactive); with M14, 33.7 µM (inactive); with Malme-3M it was 27.2 µM (inactive). Further, the GI50 in the assay on OVCAR-3 was 37.8 µM (inactive); in the assay with OVCAR-8 it was 36.3 µM (inactive); with SF-268, 25.8 µM (inactive); in the assay on SF-295, 31 µM (inactive); with SF-539 it was 37.4 µM (inactive); in the assay with SK-MEL-5, 57.9 µM (inactive). In addition, the results for the GI50 with SNB-19 and in the assay with UACC-62 were 53.5 µM (inactive) and 58.3 µM (inactive), respectively.

Take `Cc1ccc(NC(=O)CC(=O)n2nc(-c3ccccc3)c(/N=N\c3ccccc3[N+](=O)[O-])c2-c2ccccc2)cc1`: the GI50 was 90.2 µM (inactive) in the assay on A549; > 100 µM (inactive) in the assay on HT-29; > 100 µM (inactive) in the assay with KM-20L2; > 100 µM (inactive) in the assay with KM12; > 100 µM (inactive) in the assay on M14; 86.1 µM (inactive) with Malme-3M. The GI50 in the assay on OVCAR-3 was 82.8 µM (inactive); with OVCAR-8 it was 67.5 µM (inactive); in the assay on SF-268 it was 51.2 µM (inactive); in the assay with SF-295 it was 29 µM (inactive); in the assay on SF-539 it was 37.2 µM (inactive); with SK-MEL-28 it was > 100 µM (inactive). In addition, the GI50 with SK-MEL-5 is 57.5 µM (inactive); with SNB-19, 56.6 µM (inactive); in the assay on UACC-62 it was > 100 µM (inactive).

With `COc1cc(CN2CCCCC2)cc2cc(C(=O)O)c(=O)oc12`, the GI50 with A549 is > 100 µM (inactive); in the assay with BT-549 it was > 100 µM (inactive); in the assay on HCT-15, more than 100 µM; with HT-29 it was > 100 µM (inactive); with KM12 it was > 100 µM (inactive); with M14, > 100 µM (inactive). The GI50 in the assay with MDA-N, in the assay on Malme-3M, in the assay with NCI-H226, in the assay with OVCAR-3, in the assay on OVCAR-8 and in the assay on SF-268 was > 100 µM (inactive) throughout. Moreover, the GI50 in the assay on SF-295 was > 100 µM (inactive); in the assay on SF-539, > 100 µM (inactive); in the assay with SK-MEL-28 it was > 100 µM (inactive); in the assay on SK-MEL-5, > 100 µM (inactive); in the assay on SNB-19, > 100 µM (inactive); in the assay with T47D it was > 70.1 µM (inactive). Moreover, the GI50 with UACC-62 was > 100 µM (inactive).

As for `O=C(/C=C/c1c(O)ccc2ccccc12)c1ccc2ccccc2c1`, the GI50 with A549 was > 100 µM (inactive); with HCT-15, more than 100 µM; in the assay on HT-29 it was > 100 µM (inactive); with KM-20L2 it was > 100 µM (inactive); in the assay with KM12, > 100 µM (inactive); in the assay with Malme-3M, > 100 µM (inactive). In addition, the GI50 with NCI-H226, with OVCAR-3, in the assay with OVCAR-8, with SF-268, in the assay with SF-295 and in the assay on SF-539 was > 100 µM (inactive) throughout. For the same molecule, the values for the GI50 with SK-MEL-28, with SNB-19 and in the assay on UACC-62 were > 100 µM (inactive), > 100 µM (inactive) and 59.8 µM (inactive), respectively.

For `c1ccc(CC2COC(c3cccs3)=N2)cc1` (stereo unspecified), the GI50 was 92.7 µM (inactive) in the assay with A549; 54.8 µM (inactive) with BT-549; 38.3 µM in the assay on HCT-15; > 100 µM (inactive) in the assay on HT-29; > 89.3 µM (inactive) in the assay with KM12; > 100 µM (inactive) with M14. Besides, the GI50 in the assay on MDA-N was > 100 µM (inactive); in the assay with Malme-3M, > 100 µM (inactive); with NCI-H226 it was 67.9 µM (inactive); in the assay with OVCAR-3, > 86.5 µM (inactive); with OVCAR-8, > 100 µM (inactive); with SF-268, > 91 µM (inactive). Also, the GI50 with SF-295 was > 86.3 µM (inactive); with SF-539, > 45 µM (inactive); in the assay on SK-MEL-28, > 100 µM (inactive); in the assay with SK-MEL-5, 57.7 µM (inactive); in the assay with SNB-19, > 70.3 µM (inactive); in the assay on T47D, 26 µM (inactive). The GI50 in the assay on UACC-62 was > 100 µM (inactive).

As for `CC1(O)CCn2c(=O)c3cc4ccccc4cc3c(=O)n2C1O` (stereo unspecified), the GI50 in the assay on A549 was > 100 µM (inactive); with HCT-15, more than 100 µM; in the assay with HT-29, > 100 µM (inactive); with KM-20L2, > 100 µM (inactive); in the assay on KM12, > 100 µM (inactive); in the assay on Malme-3M, > 100 µM (inactive). The GI50 in the assay with NCI-H226, in the assay on OVCAR-3, in the assay on OVCAR-8, with SF-268, in the assay on SF-295 and in the assay on SF-539 was > 100 µM (inactive) in each case. Also, the GI50 in the assay on SK-MEL-28, in the assay with SK-MEL-5, with SNB-19 and in the assay with UACC-62 was > 100 µM (inactive) throughout.

For `O=c1[nH]c(C2CCCCC2)nc2cc(Cl)ccc12`, the GI50 with A549 was > 100 µM (inactive); in the assay with HCT-15, more than 100 µM; in the assay with HT-29, > 100 µM (inactive); in the assay with KM-20L2, > 100 µM (inactive); with KM12 it was > 100 µM (inactive); with Malme-3M, > 100 µM (inactive). Also, the GI50 was > 100 µM (inactive) in the assay on NCI-H226; > 100 µM (inactive) with OVCAR-3; > 100 µM (inactive) in the assay with OVCAR-8; > 100 µM (inactive) in the assay on SF-268; 92.7 µM (inactive) with SF-295; > 100 µM (inactive) in the assay with SF-539. The GI50 in the assay on SK-MEL-28, with SK-MEL-5, in the assay with SNB-19 and in the assay on UACC-62 was > 100 µM (inactive) each time.

These data come from ChEMBL document CHEMBL1201862, “PubChem BioAssay data set” (2004).
